What was measured:
[1] = tested on: kidney or kidney-pancreas transplant recipients; test: Retrospective analysis of renal function (serial serum creatinine) in calcitriol-treated transplant patients; format: in vivo, human
Text: Methodology-retrospective analysis: The University of Wisconsin transplant database was screened to identify any kidney and/or kidney-pancreas transplant recipient who received 1,25-dihydroxyvitamin D3 (calcitriol)peri-post-transplant. Clinical and demographic variables were abstracted from the database. Those patients with adequate follow-up data were included in the analysis (≧1year follow-up data following the initiation of calcitriol). Demographic variables included race, age, and nay history of parathyroidectomy as these patients would likely be receiving calcitriol at time of transplantation. The effect of calcitriol treatment on renal function was analyzed using general linear mixed modeling of the change in slope of renal function prior to and following the start of calcitriol therapy. […] Adverse events and hypercalcemia were noted by identifiers in the database and by serum calcium levels as recorded in the database. Hypercalcemia was defined as a serum calcium >10.5 mg/dl. Data assessment—Demographics: Calcitriol-treatment patients were divided into: Group 1: patients who initiated calcitriol therapy<one year following transplantation, Group 2: patients who remained on or initiated calcitriol therapy within two weeks of transplantation, Data assessment—outcomes for Group 1 patients: Renal function was determined by assessing serial serum creatinine values. This serum measure is a standard and accepted measure of renal function. The start of calcitriol therapy was defined as day 0. Time prior to initiation of calcitriol therapy was designated by a negative value. Mean serum creatinine levels appeared to increase in Group 1 patients (indicative of declining renal function) until the time of calcitriol therapy was initiated (Table 3).

[2] = Effect of calcitriol on CsA and FK506 serum levels and dosages in transplant patients; format: in vivo, human
Text: Methodology-retrospective analysis: The University of Wisconsin transplant database was screened to identify any kidney and/or kidney-pancreas transplant recipient who received 1,25-dihydroxyvitamin D3 (calcitriol)peri-post-transplant. Clinical and demographic variables were abstracted from the database. Those patients with adequate follow-up data were included in the analysis (≧1year follow-up data following the initiation of calcitriol). Demographic variables included race, age, and nay history of parathyroidectomy as these patients would likely be receiving calcitriol at time of transplantation. The effect of calcitriol treatment on renal function was analyzed using general linear mixed modeling of the change in slope of renal function prior to and following the start of calcitriol therapy. […] Adverse events and hypercalcemia were noted by identifiers in the database and by serum calcium levels as recorded in the database. Hypercalcemia was defined as a serum calcium >10.5 mg/dl. […] Both of these agents have beneficial effects in prolonging allograft function by altering the ability for activated T cells to produce interleukin-2 (IL-2). However, both of these agents are also associated with drug-related nephrotoxicity that is manifested by characteristic histologic changes in the allograft, e.g. tubulointerstitial fibrosis, and loss of allograft function long-term.

[3] = tested on: Fisher to Lewis renal allograft; test: Fisher to Lewis renal allograft model of chronic allograft nephropathy (graft survival, serum creatinine, urinary protein, histology); format: in vivo, rat
Protocol: Animals: Donor and recipients rats (greater than 250 gm) were obtained from Harlan Sprague Dawley, Indianapois, Ind. Recipient animals were placed on experimental diet containing 0.47% Ca 7 days prior to transplantation. Hullett et al., Transplantation 66:824-828, 1998. Recipients were divided into groups which received experimental diet alone or experimental diet containing 1,25-(OH)2D3 (250, 500, or 1000 ng/rat/day) or cyclosporine 1.5 or 5 mg/kg/day i.p. for 10 days. Animals were maintained on diet until the time or rejection or graft harvest at 24 weeks. All care and use of laboratory animals followed the NIH (NIH publication No. 86-23) guidelines. 1,25-(OH)2D3 was prepared, dissolved in ethanol and placed in the experimental diet as previously described.1,25-(OH)2D3 was the generous gift or Dr. Hector DeLuca, Department of Biochemistry, University of Wisconsin. Cyclosporine (Sandimmune i.v.; 1.5 or 5 mg/kg/day for 10 days,) was diluted in saline and given i.p. Transplantation: The Fisher to Lewis model of chronic allograft nephropathy has been previously described. Diamond et al., Transplantation 54:710-716, 1992. Briefly, donor kidneys obtained from male Fisher 344 rats were flushed with 10 ml cold University of Wisconsin preservation solution and stored at 4° C. while the recipient was prepared. […] Lewis male recipients were transplanted with either a Fisher 344 or Lewis kidney following left native nephrectomy. Briefly, the donor renal artery, vein and ureter were anastomosed to the recipient renal artery, vein and ureter. The right native kidney was removed 10 days post-transplant. Graft function was monitored by serum creatinine and urinary protein determinations. Urinary Protein: Proteinuria was assessed weekly. Animals were placed in metabolic cages for 6 hours and urine collected. Protein excretion was determined using a dye binding assay (quanTest red, Quantimetrix Corp., Redondo Beach, Calif.) according to manufacturer=s instructions with minor modifications. Briefly, 20 μl of the urine sample was diluted with 1×PBS in a two-fold series dilution in 96-well flat-bottom microtiter plates (Corning, N.Y.). […] Data was analyzed with Softmax Pro-software (Molecular Devices Corp.; Sunnyvale, Calif.). Graft survival was compared using the log rank test. Differences in mRNA and protein expression were compared by t-test.

[4] = allograft, 500 ng/rat/day, FIG. 2B

SMILES: C=C1/C(=C\C=C2/CCC[C@]3(C)[C@@H]([C@H](C)CCCC(C)(C)O)CC[C@@H]23)C[C@@H](O)C[C@@H]1O [calcitriol, 1,25-dihydroxyvitamin D3]
- Graft failures (loss of the transplant) ([1]; Group 1 (26 patients)): six
- Serum creatinine levels following initiation of therapy ([1]; Group 1 patients): stabilized
- Mean serum creatinine ([1]; Group 1 patients, day 100 after start of calcitriol therapy): 2.54 mg/dL
- Mean serum creatinine ([1]; Group 1 patients, day 200 after start of calcitriol therapy): 2.44 mg/dL
- Mean serum creatinine ([1]; Group 1 patients, day 300 after start of calcitriol therapy): 2.50 mg/dL
- Mean serum creatinine ([1]; Group 1 patients, day 400 after start of calcitriol therapy): 2.27 mg/dL
- Mean serum creatinine ([1]; Group 1 patients, day 500 after start of calcitriol therapy): 2.37 mg/dL
- Creatinine trend (slope) after 300 days of therapy ([1]; Group 1 patients, repeated measures analysis of slopes): creatinine was decreasing evidenced by a negative slope
- Difference (change in slope of serum creatinine over time) ([1]; Group 1 patients, treatment day +100, negative = decreasing slope, improved renal function): −0.0050
- Difference (change in slope of serum creatinine over time) ([1]; Group 1 patients, treatment day +200): −0.0046
- Difference (change in slope of serum creatinine over time) ([1]; Group 1 patients, treatment day +300): −0.0080
- Difference (change in slope of serum creatinine over time) ([1]; Group 1 patients, treatment day +400): −0.0085
- Difference (change in slope of serum creatinine over time) ([1]; Group 1 patients, treatment day +500): −0.0078
- Graft failures ([1]; Group 2 (22 patients)): two
- Analysis of interval slopes of serum creatinine ([1]; Group 2 patients): no interview slopes significantly different from 0
- Mean serum creatinine ([1]; Group 2 patients (table title prints Group 1), day 100 of calcitriol): 1.61 mg/dL
- Mean serum creatinine ([1]; Group 2 patients (table title prints Group 1), day 200 of calcitriol): 1.79 mg/dL
- Mean serum creatinine ([1]; Group 2 patients (table title prints Group 1), day 300 of calcitriol): 1.70 mg/dL
- Mean serum creatinine ([1]; Group 2 patients (table title prints Group 1), day 400 of calcitriol): 1.62 mg/dL
- Mean serum creatinine ([1]; Group 2 patients (table title prints Group 1), day 500 of calcitriol): 1.82 mg/dL
- Mean serum creatinine levels over time ([1]; Group 2 patients, first 600 days following initiation of calcitriol): remained stable
- Effect on CsA or FK506 dosages or serum drug levels ([2]; combined analysis of all Group 1 and Group 2 patients): no significant effect
- Trends in mean CsA levels or variability in CsA levels ([2]; seven of the 26 Group 1 patients with serial CsA levels): No trends
- Graft survival ([3]; 250 ng/day in diet, p=0.04): prolonged graft survival was not as readily demonstrated
- Graft survival ([3]; 500 ng/rat/day in diet, vs allogeneic untreated controls, p=0.0009): significant prolongation of graft survival was sustained
- Urinary protein ([3]; 500 ng/rat/day monotherapy (data not shown), vs untreated allogeneic controls or CSA 1.5 mg/kg/d): significantly lowered
- Calcium deposits in graft ([3]; 1000 ng): Significant calcium deposits
- Graft survival ([3]; 1000 ng/rat/day in diet, monotherapy, vs allogeneic untreated controls, p=0.0031): significantly prolonged
- Urinary protein ([3]; 1000 ng/rat/day monotherapy, p=0.004, vs untreated allogeneic controls or CSA 1.5 mg/kg/d (10 days)): significantly lowered
- Calcium deposition, histological examination ([3]; 250 and 500 ng/day groups): reduced calcium deposition
- Cellular infiltration, histological examination (Banff) ([3]; 250 and 500 ng/day groups): mild to moderate cellular infiltration (Banff IA or IIA)
- Serum calcium levels ([3]; 250 and 500 ng/day groups (data not shown)): remained elevated
- Rise in serum creatinine at 2 weeks post-transplant ([3]; 500 or 250 ng/day): Neither the 500 or the 250 ng/day dose of 1,25-(OH)2D3 prevented the rise
- Prolonged graft survival compared with low dose CSA (5 mg/kg/day for 10 days) ([3]; 1000 or 500 ng/rat/day): not statistically different
- Early acute rejection episode (within 2 weeks post-transplant) ([3]; CSA: short-term low dose monotherapy, 1,25-(OH)2D3 in diet): diminished
- Cellular infiltration (H&E) [3, 4]: significantly decreased
- Interstitial fibrosis (H&E) [3, 4]: little or no interstitial fibrosis
- Histological features of CAN (interstitial fibrosis, glomerulosclerosis, neointimal hyperplasia) ([3]; allografts, H&E, FIG. 2B): inhibited the development of these pathological features
- Serum creatinine at 2 weeks post-transplant ([3]; p=0.035 versus untreated allogeneic control (FIG. 1B)): only a slight increase
- Collagen deposition (trichrome stain) ([3]; treated allograft recipients, FIG. 2D-E): decreased collagen deposition

— patent US20080021002A1, “VITAMIN D COMPOUNDS USED TO STABILIZE KIDNEY TRANSPLANTS” (priority 2000, published 2008)
